Columns and labels:
[1] = target: T1, FASN Keto-reductase Domain (Homo sapiens, UniProt P49327); experiment: Fatty Acid Synthase Keto-Reductase Domain (FASN KR) Inhibition; format: biochemical; details: mean where tested more than once; read-out: FASN K-R Domain pIC50 (converted)
T1 construct: 10 μL hFASN enzyme (full length, 300 ng, purified in house) and 360 μM NADPH; made in house
Method in brief: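 Full-length human FASN (300 ng) in 100 mM KH2PO4 pH 7.5 with 360 μM NADPH and 180 mM ethyl acetoacetate (stock); A340 decrease read over 20 min at room temperature.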

[2] = tested on: A2780 ovarian cells; experiment: A2780 Ovarian Cell Proliferation Assay in Lipid Reduced Medium, with Palmitate (control); format: cell-based; details: Homo sapiens, A2780; lipid reduced medium, 25 μM palmitate, 96 h, MTT; read-out: Proliferation A2780 with Palmitate pIC50 (converted)
Method in brief: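 A2780 cells were seeded in RPMI1640 with 10% FCS, then switched next day to medium with 10% lipid-reduced serum. Compound was added with final 25 μM palmitate, 0.2% fatty-acid-free BSA and 0.2% DMSO, and incubated 96 h at 37 °C. Read-out was MTT absorbance at 544 nm; pIC50 = −log(IC50) from curve fit.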

[3] = tested on: A2780 ovarian cells; experiment: A2780 Ovarian Cell Proliferation Assay in Lipid Reduced Medium, without Palmitate; format: cell-based; details: Homo sapiens, A2780; lipid reduced medium, without palmitate, 96 h, MTT; read-out: Proliferation A2780 w/o Palmitate pIC50 (converted)
Method in brief: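 A2780 cells were seeded in 10% FCS medium and switched next day to 10% lipid-reduced serum without palmitate. Compounds at 0.01–30 μM were added with 0.2% DMSO, 0.2% fatty-acid-free BSA and 0.25% ethanol final. After 96 h, MTT absorbance at 544 nm was normalized to plate controls, and IC50/pIC50 came from a 4-parameter logistic fit.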

[4] = target: T2, hFASN enzyme (full length) (Homo sapiens, UniProt P49327); experiment: Fatty Acid Synthase (FASN) Inhibition Scintillation Proximity Assay; format: biochemical; details: for IC50: mean where tested more than once, ~ = standard error of pIC50 larger than 0.5; for inhibition at 10 µM: read-out: FASN % Effect @1E−05M
T2 construct: 10 μL hFASN enzyme (full length, 300 ng, purified in house); made in house
Method in brief: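 Purified full-length human FASN (300 ng) incubated 60 min at room temperature with NADPH, [3H]-acetyl-CoA and malonyl-CoA in 100 mM KH2PO4 pH 7.5, 1 mM DTT; compound at 30 μM to 0.01 μM. [3H]-palmitate captured by SPA imaging beads; IC50 from 4-parameter fit, reported as pIC50.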

T1 sequence (P49327 whole entry, the tested form may be a part): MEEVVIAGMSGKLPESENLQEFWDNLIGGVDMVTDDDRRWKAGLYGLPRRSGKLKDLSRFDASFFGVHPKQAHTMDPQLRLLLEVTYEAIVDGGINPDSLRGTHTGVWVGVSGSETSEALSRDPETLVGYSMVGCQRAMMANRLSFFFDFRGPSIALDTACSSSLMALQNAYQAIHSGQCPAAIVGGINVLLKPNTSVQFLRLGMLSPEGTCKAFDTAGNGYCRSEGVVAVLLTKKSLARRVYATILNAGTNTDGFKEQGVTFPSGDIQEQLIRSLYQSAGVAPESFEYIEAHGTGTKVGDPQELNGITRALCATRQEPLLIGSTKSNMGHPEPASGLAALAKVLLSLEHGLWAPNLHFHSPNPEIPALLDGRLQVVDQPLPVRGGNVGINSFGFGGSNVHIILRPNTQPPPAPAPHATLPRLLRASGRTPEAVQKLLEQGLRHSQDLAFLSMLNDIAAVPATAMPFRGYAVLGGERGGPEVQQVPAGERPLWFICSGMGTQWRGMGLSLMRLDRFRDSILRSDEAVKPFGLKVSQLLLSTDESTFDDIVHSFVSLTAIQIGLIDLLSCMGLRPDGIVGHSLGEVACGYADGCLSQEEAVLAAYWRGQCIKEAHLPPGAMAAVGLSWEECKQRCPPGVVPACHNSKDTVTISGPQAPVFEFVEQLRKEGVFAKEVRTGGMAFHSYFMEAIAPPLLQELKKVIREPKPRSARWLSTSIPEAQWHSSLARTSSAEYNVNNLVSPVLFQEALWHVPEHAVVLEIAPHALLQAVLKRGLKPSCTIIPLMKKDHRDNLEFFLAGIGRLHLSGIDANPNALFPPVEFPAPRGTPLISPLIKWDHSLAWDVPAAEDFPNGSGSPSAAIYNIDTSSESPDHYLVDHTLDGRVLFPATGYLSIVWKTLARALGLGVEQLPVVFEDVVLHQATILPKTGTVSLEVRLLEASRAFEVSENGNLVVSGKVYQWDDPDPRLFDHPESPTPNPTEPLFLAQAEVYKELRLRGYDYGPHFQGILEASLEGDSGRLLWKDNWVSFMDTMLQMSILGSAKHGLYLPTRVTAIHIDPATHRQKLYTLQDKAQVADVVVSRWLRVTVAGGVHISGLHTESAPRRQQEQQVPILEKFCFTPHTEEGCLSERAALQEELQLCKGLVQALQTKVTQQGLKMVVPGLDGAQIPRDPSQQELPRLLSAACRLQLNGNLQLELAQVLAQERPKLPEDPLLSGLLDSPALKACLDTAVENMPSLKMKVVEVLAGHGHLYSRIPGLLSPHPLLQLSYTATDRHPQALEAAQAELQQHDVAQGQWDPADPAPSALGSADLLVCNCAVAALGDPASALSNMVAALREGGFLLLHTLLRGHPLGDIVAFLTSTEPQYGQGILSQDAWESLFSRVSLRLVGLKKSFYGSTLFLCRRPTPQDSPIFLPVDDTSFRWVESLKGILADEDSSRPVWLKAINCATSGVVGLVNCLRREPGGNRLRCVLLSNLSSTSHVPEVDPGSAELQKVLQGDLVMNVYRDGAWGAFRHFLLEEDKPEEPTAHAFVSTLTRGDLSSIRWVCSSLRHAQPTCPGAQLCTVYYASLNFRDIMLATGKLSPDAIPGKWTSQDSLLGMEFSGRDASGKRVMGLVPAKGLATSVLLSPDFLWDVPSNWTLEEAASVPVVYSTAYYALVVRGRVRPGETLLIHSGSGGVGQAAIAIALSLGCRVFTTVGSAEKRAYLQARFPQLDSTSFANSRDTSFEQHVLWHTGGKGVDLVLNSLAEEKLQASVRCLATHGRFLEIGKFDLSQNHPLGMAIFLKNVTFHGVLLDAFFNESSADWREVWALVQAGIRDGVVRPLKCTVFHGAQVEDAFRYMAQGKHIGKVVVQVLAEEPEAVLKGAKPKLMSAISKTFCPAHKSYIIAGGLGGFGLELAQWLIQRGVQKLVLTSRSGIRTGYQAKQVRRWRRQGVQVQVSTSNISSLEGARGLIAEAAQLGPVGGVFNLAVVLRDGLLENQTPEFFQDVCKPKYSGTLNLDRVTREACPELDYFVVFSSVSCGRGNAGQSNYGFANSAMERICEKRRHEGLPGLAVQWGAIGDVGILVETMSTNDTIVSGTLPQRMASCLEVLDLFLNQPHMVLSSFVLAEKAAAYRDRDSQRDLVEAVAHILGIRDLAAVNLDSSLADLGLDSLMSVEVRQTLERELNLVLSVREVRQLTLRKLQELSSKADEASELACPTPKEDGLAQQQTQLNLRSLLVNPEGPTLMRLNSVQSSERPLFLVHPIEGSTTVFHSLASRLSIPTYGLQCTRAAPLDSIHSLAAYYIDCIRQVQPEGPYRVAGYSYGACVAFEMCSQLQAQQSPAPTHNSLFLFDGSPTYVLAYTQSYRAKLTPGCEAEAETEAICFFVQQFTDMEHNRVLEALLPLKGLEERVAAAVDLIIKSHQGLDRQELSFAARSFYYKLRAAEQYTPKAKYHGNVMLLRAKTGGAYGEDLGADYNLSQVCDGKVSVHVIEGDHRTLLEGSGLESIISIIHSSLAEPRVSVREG
T2 sequence (P49327 whole entry): as the sequence (P49327 whole entry, the tested form may be a part) above

Cc1ccc(C(=O)N2CCC(c3ccc(-c4ccoc4)cc3)CC2)cc1NC(=O)c1ccc(NC(C)C)nc1 [Compound 235, N-(5-(4-(4-(furan-3-yl)phenyl)piperidine-1-carbonyl)-2-methylphenyl)-6-(isopropylamino)nicotinamide]
IC50 [1]: 102 nM | IC50 [2]: 1580 nM | IC50 [3]: 74.1 nM | IC50 [4]: 53.7 nM | inhibition at 10 µM [4]: 112%

Cc1ccc(C(=O)N2CCC(c3ccc(-c4cccs4)cc3)CC2)cc1NC(=O)c1ccc(NC(C)C)nc1 [Compound 236, 6-(isopropylamino)-N-(2-methyl-5-(4-(4-(thiophen-2-yl)phenyl)piperidine-1-carbonyl)phenyl)nicotinamide]
IC50 [1]: 355 nM | IC50 [2]: 1950 nM | IC50 [3]: 603 nM | IC50 [4]: ~309 nM | inhibition at 10 µM [4]: 74%

Cc1ccc(C(=O)N2CCC(c3ccc(-c4cnn(C)c4)cc3)C2)cc1NC(=O)c1ccc(NC(C)C)nc1 (stereo not shown) [Compound 237, 6-(isopropylamino)-N-(2-methyl-5-(3-(4-(1-methyl-1H-pyrazol-4-yl)phenyl)pyrrolidine-1-carbonyl)phenyl)nicotinamide]
IC50 [1]: 380 nM | IC50 [2]: > 10000 nM | IC50 [3]: 166 nM | IC50 [4]: 129 nM | inhibition at 10 µM [4]: 101%

Cc1ccc(C(=O)N2CCC(c3ccc(-c4cnn(C)c4)cc3)CC2)cc1NC(=O)[C@@H]1CCCN1C [Compound 238, (S)-1-methyl-N-(2-methyl-5-(4-(4-(1-methyl-1H-pyrazol-4-yl)phenyl)piperidine-1-carbonyl)phenyl)pyrrolidine-2-carboxamide]
IC50 [1]: 1020 nM | IC50 [2]: > 10000 nM | IC50 [3]: 741 nM | IC50 [4]: 479 nM | inhibition at 10 µM [4]: 100%

Cc1ccc(C(=O)N2CCC(c3ccc(-c4cnn(C)c4)cc3)CC2)cc1NC(=O)[C@H]1CCCN1C [Compound 239, (R)-1-methyl-N-(2-methyl-5-(4-(4-(1-methyl-1H-pyrazol-4-yl)phenyl)piperidine-1-carbonyl)phenyl)pyrrolidine-2-carboxamide]
IC50 [1]: 457 nM | IC50 [2]: > 10000 nM | IC50 [3]: 195 nM | IC50 [4]: 123 nM | inhibition at 10 µM [4]: 110%

Cc1ccc(C(=O)N2CCC(c3ccc(-c4cnn(C)c4)cc3)CC2)cc1NC(=O)C1CN(C2CCC2)C1 [Compound 240, 1-cyclobutyl-N-(2-methyl-5-(4-(4-(1-methyl-1H-pyrazol-4-yl)phenyl)piperidine-1-carbonyl)phenyl)azetidine-3-carboxamide]
IC50 [1]: 407 nM | IC50 [2]: > 10000 nM | IC50 [3]: 162 nM | IC50 [4]: 83.2 nM | inhibition at 10 µM [4]: 106%

Cc1ccc(C(=O)N2CCC(c3ccc(-c4cnn(C)c4)cc3)CC2)cc1NC(=O)C1CCN(C2CCC2)C1 (stereo not shown) [Compound 241, 1-cyclobutyl-N-(2-methyl-5-(4-(4-(1-methyl-1H-pyrazol-4-yl)phenyl)piperidine-1-carbonyl)phenyl)pyrrolidine-3-carboxamide]
IC50 [1]: 468 nM | IC50 [2]: > 10000 nM | IC50 [3]: 148 nM | IC50 [4]: 145 nM | inhibition at 10 µM [4]: 101%

CCCCN1CC(C(=O)Nc2cc(C(=O)N3CCC(c4ccc(-c5cnn(C)c5)cc4)CC3)ccc2C)C1 [Compound 242, 1-butyl-N-(2-methyl-5-(4-(4-(1-methyl-1H-pyrazol-4-yl)phenyl)piperidine-1-carbonyl)phenyl)azetidine-3-carboxamide]
IC50 [1]: 158 nM | IC50 [2]: > 10000 nM | IC50 [3]: 95.5 nM | IC50 [4]: 72.4 nM | inhibition at 10 µM [4]: 105%

CCCCCCN1CC(C(=O)Nc2cc(C(=O)N3CCC(c4ccc(-c5cnn(C)c5)cc4)CC3)ccc2C)C1 [Compound 243, 1-hexyl-N-(2-methyl-5-(4-(4-(1-methyl-1H-pyrazol-4-yl)phenyl)piperidine-1-carbonyl)phenyl)azetidine-3-carboxamide]
IC50 [1]: 186 nM | IC50 [2]: 7080 nM | IC50 [3]: 240 nM | IC50 [4]: 129 nM | inhibition at 10 µM [4]: 105%

Cc1ccc(C(=O)N2CCC(c3ccc(-c4cnn(C)c4)cc3)CC2)cc1NC(=O)c1nc(Br)cs1 [Compound 244, 4-bromo-N-(2-methyl-5-(4-(4-(1-methyl-1H-pyrazol-4-yl)phenyl)piperidine-1-carbonyl)phenyl)thiazole-2-carboxamide]
IC50 [1]: 191 nM | IC50 [2]: 8320 nM | IC50 [3]: 95.5 nM | IC50 [4]: 44.7 nM | inhibition at 10 µM [4]: 106%

Cc1ccc(C(=O)N2CCC(c3ccc(-c4cn(C)nc4C)cc3)CC2)cc1NC(=O)c1ccc(NC(C)C)nc1 [Compound 245, N-(5-(4-(4-(1,3-dimethyl-1H-pyrazol-4-yl)phenyl)piperidine-1-carbonyl)-2-methylphenyl)-6-(isopropylamino)nicotinamide]
IC50 [1]: 75.9 nM | IC50 [2]: > 10000 nM | IC50 [3]: ~31.6 nM | IC50 [4]: 33.9 nM | inhibition at 10 µM [4]: 108%

Cc1ccc(C(=O)N2CCC(c3ccc(-c4cnn(C)c4C)cc3)CC2)cc1NC(=O)c1ccc(NC(C)C)nc1 [Compound 246, N-(5-(4-(4-(1,5-dimethyl-1H-pyrazol-4-yl)phenyl)piperidine-1-carbonyl)-2-methylphenyl)-6-(isopropylamino)nicotinamide]
IC50 [1]: 245 nM | IC50 [2]: 8320 nM | IC50 [3]: 112 nM | IC50 [4]: 53.7 nM | inhibition at 10 µM [4]: 110%

Cc1ccc(C(=O)N2CCC(c3ccc(-c4cnn(C(C)C)c4)cc3)CC2)cc1NC(=O)c1ccc(NC(C)C)nc1 [Compound 247, N-(5-(4-(4-(1-isopropyl-1H-pyrazol-4-yl)phenyl)piperidine-1-carbonyl)-2-methylphenyl)-6-(isopropylamino)nicotinamide]
IC50 [1]: 91.2 nM | IC50 [2]: 6170 nM | IC50 [3]: 38.9 nM | IC50 [4]: 33.9 nM | inhibition at 10 µM [4]: 112%

Cc1ccc(C(=O)N2CCC(c3ccc(-c4cnn(C5CCC5)c4)cc3)CC2)cc1NC(=O)c1ccc(NC(C)C)nc1 [Compound 248, N-(5-(4-(4-(1-cyclobutyl-1H-pyrazol-4-yl)phenyl)piperidine-1-carbonyl)-2-methylphenyl)-6-(isopropylamino)nicotinamide]
IC50 [1]: 93.3 nM | IC50 [2]: 3550 nM | IC50 [3]: 35.5 nM | IC50 [4]: 43.7 nM | inhibition at 10 µM [4]: 108%

Cc1ccc(C(=O)N2CCC(c3ccc(-c4cnn(CC5CC5)c4)cc3)CC2)cc1NC(=O)c1ccc(NC(C)C)nc1 [Compound 249, N-(5-(4-(4-(1-(cyclopropylmethyl)-1H-pyrazol-4-yl)phenyl)piperidine-1-carbonyl)-2-methylphenyl)-6-(isopropylamino)nicotinamide]
IC50 [1]: 100 nM | IC50 [2]: 5250 nM | IC50 [3]: 72.4 nM | IC50 [4]: 53.7 nM | inhibition at 10 µM [4]: 109%

Cc1ccc(C(=O)N2CCC(c3ccc(-c4ccc(F)cc4)cc3)CC2)cc1NC(=O)c1ccc(NC(C)C)nc1 [Compound 250, N-(5-(4-(4′-fluoro-[1,1′-biphenyl]-4-yl)piperidine-1-carbonyl)-2-methylphenyl)-6-(isopropylamino)nicotinamide]
IC50 [1]: 209 nM | IC50 [2]: 1620 nM | IC50 [3]: 490 nM | IC50 [4]: 229 nM | inhibition at 10 µM [4]: 65%

Cc1ccc(C(=O)N2CCC(c3ccc(-c4ccco4)cc3)CC2)cc1NC(=O)c1ccc(NC(C)C)nc1 [Compound 252, N-(5-(4-(4-(furan-2-yl)phenyl)piperidine-1-carbonyl)-2-methylphenyl)-6-(isopropylamino)nicotinamide]
IC50 [1]: 437 nM | IC50 [2]: 1450 nM | IC50 [3]: 347 nM | IC50 [4]: 166 nM | inhibition at 10 µM [4]: 106%

Cc1ccc(C(=O)N2CCC(c3ccc(-c4cnn(CCN(C)C)c4)cc3)CC2)cc1NC(=O)c1ccc(NC(C)C)nc1 [Compound 253, N-(5-(4-(4-(1-(2-(dimethylamino)ethyl)-1H-pyrazol-4-yl)phenyl)piperidine-1-carbonyl)-2-methylphenyl)-6-(isopropylamino)nicotinamide]
IC50 [1]: 1230 nM | IC50 [2]: ~1860 nM | IC50 [3]: ~257 nM | IC50 [4]: 316 nM | inhibition at 10 µM [4]: 104%

Cc1ccc(C(=O)N2CCC(c3ccc(-c4cnn(C5CC5)c4)cc3)CC2)cc1NC(=O)c1ccc(NC(C)C)nc1 [Compound 254, N-(5-(4-(4-(1-cyclopropyl-1H-pyrazol-4-yl)phenyl)piperidine-1-carbonyl)-2-methylphenyl)-6-(isopropylamino)nicotinamide]
IC50 [1]: 53.7 nM | IC50 [2]: ~10000 nM | IC50 [3]: 18.2 nM | IC50 [4]: 42.7 nM | inhibition at 10 µM [4]: 103%

Cc1ccc(C(=O)N2CCC(c3ncc(-c4cnn(C)c4)cn3)CC2)cc1NC(=O)c1ccc(Cl)nc1 [Compound 257, 6-chloro-N-(2-methyl-5-(4-(5-(1-methyl-1H-pyrazol-4-yl)pyrimidin-2-yl)piperidine-1-carbonyl)phenyl)nicotinamide]
IC50 [1]: 2040 nM | IC50 [2]: > 10000 nM | IC50 [3]: 891 nM | IC50 [4]: 617 nM | inhibition at 10 µM [4]: 95%

Reference: patent US9562035B2, “Benzamide derivative useful as FASN inhibitors for the treatment of cancer” (Janssen Pharmaceutica NV, priority 2013, dated 2017)
